Measured values: US8017579B2, “Treatment of viral infections” (priority 2003, dated 2011)
Several values for one entry are separate records, joined by “and”; a condition that tells them apart may be missing. Equal entries are not always repeated. Where two headings read alike, the source gives them in different places. Ends that are not written are not given here.

Tests used:
HSV1 [1] = assay type: cell-based, herpes simplex virus type 1; details: for antiviral activity against HSV1 (in words): HSV1 plaque assay, Vero cells
Experimental: African Green Monkey Kidney (Vero) cells were maintained in Eagle's minimum essential medium with Earle's salt (EMEM) and supplemented with 10% foetal calf serum (heat-inactivated), 4 mM L-glutamine, and 1% (v/v) nonessential amino acids, plus penicillin and streptomycin (100 IU/ml and 100 μg/ml, respectively) (maintenance medium referred to as 10% EMEM). The cells were incubated at 37° C. in a humidified atmosphere of air with 5% CO2.
On harvesting, monolayers were washed in phosphate-buffered saline (PBS), and dislodged by incubating with trypsin in PBS for 30 min, before inactivating trypsin by addition of an equal volume of 10% EMEM and centrifuging at 500 g (5 min, 4° C.). Cell pellets were resuspended in 10% EMEM, prior to cell counting and seeding of 24-well plates. For antiviral assays, medium containing only 0.5% FCS was used (referred to as 0.5% EMEM).
Three separate passages of HSV1 virus were prepared by infecting Vero cells, and preparing semi-pure suspensions of virus from tissue culture supernatant and cell lysates, before freezing aliquots of virus at −85° C. Viral infectivity was assessed by carrying out plaque assays on serial dilutions of thawed aliquots (expressed in pfu/ml).
Peptides were obtained in lyophilised form from a commercial supplier (AltaBioscience, University of Birmingham or Advanced Biomedical), and were produced at 5 micromole scale. N-terminals were protected by addition of an acetyl group, and the C-terminals were protected by addition of an amide group.
Small quantities of peptide were weighed in sterile Eppendorf tubes, before addition of sufficient 0.5% EMEM to produce a 1.5 mM stock solution, which was frozen at −20° C. in aliquots.
(§1) Vero cells were seeded at 125,000 cells per well in 10% EMEM, and were incubated overnight resulting in confluent monolayers. Peptides were diluted in 0.5% EMEM to give 2× final desired concentration, and 100 μl aliquots were arranged on 96-well plates in arrangement to be used for 24-well plate; control wells containing normal 0.5% EMEM were also prepared. Virus stocks (p3) were thawed, and diluted in 0.5% EMEM such that there were around 100 pfu in 100 μl. Each 24-well plate was inoculated separately. Firstly 100 μl of virus stock was added to the peptide or control medium arranged on a 96-well plate. This was incubated at 37° C. for ten minutes before inoculation. Medium was removed from four wells of a 24-well plate containing confluent Vero, and the 200 μl inoculum added to the appropriate well. Once all wells were treated, the 24-well plate was incubated for a further 60-80 minutes. Finally the peptide-containing inoculum was removed, and 1 ml of 1% EMEM containing 1% carboxymethylcellulose was added to each well. Plates were incubated for a further 22 hours, before removal of overlay, and addition of 10% formaldehyde in PBS. After a further one hour incubation, fixative was removed, monolayers washed several times with tap water, and stained with carbol fuchsin solubilised in water. After 30 minutes stain was removed, and plates washed several times with tap water, before being air dried. Plaques were counted using an Olympus IX70 Inverting Microscope, and antiviral effect expressed as a percentage of the control value for each peptide concentration. The IC50 was calculated from plots of inhibitory effect against peptide concentration.
The methods employed were as described in Examples 1-4 expect peptides were prepared as 400 μM stocks in phosphate buffered saline (PBS).

HIV isolate SF162 = assay: HIV-1 infectious foci in NP2 glioma cells over-expressing CD4 and CCR5; assay type: cell-based; details: HIV isolate SF162, NP-2 glioma cells overexpressing CCR5, 0.1 to 10 micromolar
Experimental: Similar experiments to those described in Example 2 were conducted to test the efficacy of the peptides according to the invention against HIV infection. The glioma cell line NP2 over-expressing both CD4 and the appropriate co-receptor (CCR5 or CXCR4) were maintained in DMEM supplemented with 10% FCS. 2×10^4 cells were plated per well of a 48-well plate 24 h prior to infection and grown at 37 C. The cells were then washed, and incubated in DMEM/FCS containing peptide concentrations ranging from 0.1 to 10 micromolar, at 37 C for 30 minutes. 200 focus-forming units of HIV-1 stocks were then added to each well, and the cells incubated at 37 C for a further 2 hours. The cells were then washed twice in PBS and fresh medium replaced. After 3 day's growth the cells were fixed in cold methanol:acetone, and stained in situ for expression of HIV-1 p24 using a monoclonal anti-p24 followed by a secondary anti-mouse beta-galactosidase conjugate. Expression was visualised by X-Gal staining and infectious foci enumerated by light-microscopy.

HSV2 clinical isolates = assay type: cell-based, herpes simplex virus type 2
Experimental: as §1
Plaque assays were performed. The methodology was as described in previous Examples for HSV1 plaque assays (including usage of Vero cells) except HSV2 clinical isolates (provided by Prof. Anthony Hart of Liverpool University) were employed instead.

HSV1 [2] = assay: HSV1 plaque formation in Vero cells (Example 1); assay type: cell-based, herpes simplex virus type 1
Experimental: (§2) FIG. 1 and table 1 show typical results for the test for anti-HSV1 activity. The assay involved treating confluent Vero cells in 24-well plates with medium containing virus and varying amounts of peptide for one hour, followed by removal of this inoculum, and addition of viscous ‘overlay’ medium, containing 0.2% high viscosity carboxymethylcellulose. The overlay medium only allows infection of those cells immediately adjacent to an infected cell. After 2 days incubation and then fixation and staining, small patches of infected cells (or ‘plaques’) are visible, which are counted. Each of these corresponds to the infection of a single cell during the one hour inoculation. ApoE141-149dp produced a 40% reduction in plaque number at a concentration of around 20 μM. Note the peptide was only present in the experimental system for 1 hour.

HSV2 = HSV2 plaque formation in HEp-2 cells (Example 1); assay type: cell-based, herpes simplex virus type 2; details: HSV2, HEp-2 cells
Experimental: as §2
FIG. 2 and table 2 show typical results for the test for anti-HSV2 activity. The assay was carried out as for the anti-HSV1 assay, except Hep-2 cells were used rather than Vero cells. ApoE141-149dp produced a 50% reduction in plaque number at a concentration of around 20 μM. Again note that the peptide was only present in the experimental system for 1 hour.

HIV-1 = details: 7 days; for % Decrease in HIV p24 Production, Mean ± sd / % Decrease in HIV p24 Production, Exp. 1-3: U937 cells
Experimental: The assay was carried out by incubating HIV infected U937 cells in the presence of various levels of peptide for 7 days, followed by assay for levels of the HIV protein p24 in the cells using an Enzyme Linked Immunoabsorbant Assay (ELISA) technique.

bacteria = details: Azuma et al., Peptides, 21: 327-330 (2000); cited from earlier work
[3] = 5 μM peptide, untreated mean 152 ± 10.7

Ac-HMLDVMQDHFSRASSIIDEL (N-terminus assumed) [GIN 29]
IC50 (HSV1 [1]): 38.5 µM

Ac-RLRARMEEMRLRARMEEM-NH2 (N-terminus and C-terminus assumed) [GIN 15]
IC50 (HSV1 [1]): > 40 µM

Ac-WRWRKRWRKWRWRKRWRK-NH2 (N-terminus and C-terminus assumed) [GIN 33]
antiviral activity against HSV1 (in words) (HSV1 [1]): have antiviral activity | anti-HIV action (in words) (HIV isolate SF162): anti-HIV action | IC50 (HSV2 clinical isolates): 10 µM

ApoE263-286: peptide from a region of apolipoprotein E that is not involved in HSPG receptor binding (SWFEPLVEDMQRQWAGLVEKVQAA; UniProt P02649 281-304, looked up, fragment)
Plaque number, wells 1-4 (HSV1 [2]; 5 μM peptide in inoculum for 1 hour, untreated mean 107 ± 14.2): 113 and 119 and 122 and 126 | Plaque number, Mean ± sd (HSV1 [2]; 5 μM peptide, untreated mean 107 ± 14.2): 120 ± 5.5 | Plaque number, Mean ± sd (HSV1 [2]; 10 μM peptide): 114 ± 11.1 | Plaque number, wells 1-4 (HSV1 [2]; 10 μM peptide): 116 and 124 and 102 | Plaque number, Mean ± sd (HSV1 [2]; 20 μM peptide): 127 ± 17.0 | Plaque number, wells 1-4 (HSV1 [2]; 20 μM peptide): 148 and 112 and 133 and 114 | Plaque number, Mean ± sd (HSV1 [2]; 30 μM peptide): 121 ± 11.2 | Plaque number, wells 1-4 (HSV1 [2]; 30 μM peptide): 134 and 109 and 114 and 125 | Plaque number, Mean ± sd (HSV1 [2]; 40 μM peptide): 126 ± 11.2 | Plaque number, wells 1-4 (HSV1 [2]; 40 μM peptide): 120 and 113 and 125 and 144 | Plaque number, Mean ± sd (HSV2; [3]): 152 ± 12.0 | Plaque number, wells 1-4 (HSV2; [3]): 135 and 160 and 161 and 152 | Plaque number, Mean ± sd (HSV2; 10 μM peptide): 141 ± 16.1 | Plaque number, wells 1-4 (HSV2; 10 μM peptide): 157 and 121 and 151 and 134 | Plaque number, Mean ± sd (HSV2; 20 μM peptide): 146 ± 27.3 | Plaque number, wells 1-4 (HSV2; 20 μM peptide): 118 and 150 and 182 and 134 | Plaque number, Mean ± sd (HSV2; 30 μM peptide): 124 ± 24.2 | Plaque number, wells 1-4 (HSV2; 30 μM peptide): 118 and 117 and 103 and 159 | Plaque number, Mean ± sd (HSV2; 40 μM peptide): 131 ± 24.2 | Plaque number, wells 1-4 (HSV2; 40 μM peptide): 132 and 144 and 125 and 124 | reduction in infectivity (HIV-1; HIV infected U937 cells, 20 μM): 20% | % Decrease in HIV p24 Production, Mean ± sd (HIV-1; 10 μM peptide): 23.21 ± 12.79% | % Decrease in HIV p24 Production, Mean ± sd (HIV-1; 20 μM peptide): 22.77 ± 13.07% | % Decrease in HIV p24 Production, Exp. 1-3 (HIV-1; 30 μM peptide): 37.94% and 27.83% and 41.78% | % Decrease in HIV p24 Production, Mean ± sd (HIV-1; 30 μM peptide): 35.85 ± 7.21% | % Decrease in HIV p24 Production, Mean ± sd (HIV-1; 40 μM peptide): 38.87 ± 12.70% | % Decrease in HIV p24 Production, Exp. 1-3 (HIV-1; 50 μM peptide): 33.36% and 41.45% and 45.66% | % Decrease in HIV p24 Production, Mean ± sd (HIV-1; 50 μM peptide): 40.16 ± 6.25%

ApoE 133-162: peptide derivative of apoE with antibacterial action (Azuma et al.) (LRVRLASHLRKLRKRLLRDADDLQKRLAVY; UniProt P02649 151-180, looked up, fragment)
antibacterial action (in words) (bacteria): most effective

GERLRARMEGERLRARME-NH2 (C-terminus assumed) [GIN 14]
IC50 (HSV1 [1]): > 40 µM | antiviral activity against HSV1 (in words) (HSV1 [1]): no antiviral activity

HRWRKRWRKHRWRKRWRK-NH2 (C-terminus assumed) [MU_36]
IC50 (HSV1 [1]): 10 µM

HRWRKRWRKWRWRKRWRK-NH2 (C-terminus assumed) [MU_31]
IC50 (HSV1 [1]): 7.5 µM

KRWRKRWRKKRWRKRWRK-NH2 (C-terminus assumed) [MU_34]
IC50 (HSV1 [1]): 9 µM

KRWRKRWRKWRWRKRWRK-NH2 (C-terminus assumed) [MU_29]
IC50 (HSV1 [1]): 7.5 µM

LRKRKRLLRKRKRL-NH2 (C-terminus assumed) [GIN 37]
IC50 (HSV1 [1]): 9 µM | antiviral activity against HSV1 (in words) (HSV1 [1]): have antiviral activity

LRKRKRLRKLRKRKRLRK-NH2 (C-terminus assumed) [GIN 38]
IC50 (HSV1 [1]): 9 µM | antiviral activity against HSV1 (in words) (HSV1 [1]): have antiviral activity

LRTRKRGRKLRTRKRGRK-NH2 (C-terminus assumed) [GIN 16]
IC50 (HSV1 [1]): 22 µM | antiviral activity against HSV1 (in words) (HSV1 [1]): showed antiviral activity | antiviral activity against HSV1 (in words) (HSV1 [1]; listed as GIN16): appreciable antiviral effect

LRWRKRWRKLRWRKRWRK-NH2 (C-terminus assumed) [MU_35]
IC50 (HSV1 [1]): > 15 µM

LRWRKRWRKWRWRKRWRK-NH2 (C-terminus assumed) [MU_30]
IC50 (HSV1 [1]): 7.5 µM

RRWRKRWRKRRWRKRWRK-NH2 (C-terminus assumed) [MU_33]
IC50 (HSV1 [1]): 6.5 µM | IC50 (HSV2 clinical isolates): > 20 µM

RRWRKRWRKWRWRKRWRK-NH2 (C-terminus assumed) [MU_28]
IC50 (HSV1 [1]): 7.5 µM

RTRKRGRKRTRKRGRK-NH2 (C-terminus assumed) [GIN 35]
IC50 (HSV1 [1]): 9 µM | antiviral activity against HSV1 (in words) (HSV1 [1]): have antiviral activity

RTRKRGRRTRKRGR-NH2 (C-terminus assumed) [GIN 36]
IC50 (HSV1 [1]): 9 µM | antiviral activity against HSV1 (in words) (HSV1 [1]): have antiviral activity

RTRKRWRKRTRKRGRK-NH2 (C-terminus assumed) [MU_70]
IC50 (HSV1 [1]): 9.5 µM | IC50 (HSV2 clinical isolates): > 20 µM

RWRKRGRKRWRKRGRK-NH2 (C-terminus assumed) [MU_69]
IC50 (HSV1 [1]): 13 µM

RWRKRWRKRWRKRWRK-NH2 (C-terminus assumed) [MU_37]
IC50 (HSV1 [1]): 12.5 µM

RWRKRWRKRWRKRWRK-NH2 (C-terminus assumed) [MU_71]
IC50 (HSV1 [1]): 16 µM

RWRKRWRKWRWRKRWRK-NH2 (C-terminus assumed) [MU_32]
IC50 (HSV1 [1]): 7.5 µM | IC50 (HSV2 clinical isolates): > 20 µM

RWRKRWRWRKRWRWRKRW-NH2 (C-terminus assumed) [MU_84]
IC50 (HSV1 [1]): 10 µM

apoE 134-155: peptide derivative of apoE tested for antibacterial action (Azuma et al.) (RVRLASHLRKLRKRLLRDADDL; UniProt P02649 152-173, looked up, fragment)
antibacterial action (in words) (bacteria): little effect
